Tests used:
Assay type in all cases: binding
[1] = target: T1, KRAS G12S (Homo sapiens, UniProt P01116, G12S); experiment: HTRF assay of K-Ras G12S interaction with SOS1 (PPI-HTRF); conditions: 5 nM KRAS G12S, read-out: PPI-HTRF-5 nM KRAS G12S
T1 construct: made in house; host or cells: E. coli, e.g. BL21 (DE3)
In short: (§1)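 Read-out: HTRF ratio 665/620 nm (ex 337 nm) after ~10 min or longer. Donor anti-GST-Eu(K) on GST-K-Ras and acceptor anti-6His-XL665 on His-hSOS1, in HEPES pH 7.4 buffer with DTT, BSA and Igepal. Duplicate dilution series from 10 μM down to 0.01 μM gave IC50 values.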

[2] = target: T2, KRAS WT (Homo sapiens, UniProt P01116); experiment: HTRF assay of wildtype K-Ras interaction with SOS1 (PPI-HTRF); conditions: HTRF, 5 nM KRAS WT; read-out: PPI-HTRF-5 nM KRAS WT
T2 construct: made in house; host or cells: E. coli, e.g. BL21 (DE3)
In short: as §1

[3] = target: T3, KRAS G12D (Homo sapiens, UniProt P01116, G12D); experiment: HTRF assay of K-Ras G12D interaction with SOS1 (PPI-HTRF); conditions: HTRF, 5 nM KRAS G12D; read-out: PPI-HTRF-5 nM KRAS G12D
T3 construct: made in house; host or cells: E. coli, e.g. BL21 (DE3)
In short: as §1

Measured: IC50

T3 sequence (P01116 1-188 isoform P01116-2 G12D): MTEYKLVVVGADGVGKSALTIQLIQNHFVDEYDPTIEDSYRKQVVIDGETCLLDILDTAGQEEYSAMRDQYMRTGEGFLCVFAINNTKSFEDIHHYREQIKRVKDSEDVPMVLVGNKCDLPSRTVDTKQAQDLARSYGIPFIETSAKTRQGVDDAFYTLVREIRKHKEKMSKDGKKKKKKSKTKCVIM
T1 sequence (P01116 1-188 isoform P01116-2 G12S): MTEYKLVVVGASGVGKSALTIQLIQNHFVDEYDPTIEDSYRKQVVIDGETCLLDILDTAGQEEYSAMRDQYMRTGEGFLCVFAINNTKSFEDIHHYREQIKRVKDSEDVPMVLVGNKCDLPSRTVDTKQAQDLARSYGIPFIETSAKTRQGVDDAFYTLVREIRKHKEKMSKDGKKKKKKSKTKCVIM
T2 sequence (P01116 1-188 isoform P01116-2): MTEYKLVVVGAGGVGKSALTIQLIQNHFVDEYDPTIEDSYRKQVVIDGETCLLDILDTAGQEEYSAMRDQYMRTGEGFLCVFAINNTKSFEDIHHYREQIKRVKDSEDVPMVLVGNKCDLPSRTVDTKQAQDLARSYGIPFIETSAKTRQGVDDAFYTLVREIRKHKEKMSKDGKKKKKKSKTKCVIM

N#Cc1c(N)sc2c(F)ccc(-c3c(Cl)cc4c(N5CCC6(CCCN6C(=O)C6CC6(F)F)C5)nc(OC[C@@]56CCCN5C[C@H](F)C6)nc4c3F)c12 (stereo partly drawn) [Compound 217, 2-amino-4-(6-chloro-4-(1-(2,2-difluorocyclopropane-1-carbonyl)-1,7-diazaspiro[4.4]nonan-7-yl)-8-fluoro-2-(((2R,7aS)-2-fluorotetrahydro-1H-pyrrolizin-7a(5H)-yl)methoxy)quinazolin-7-yl)-7-fluorobenzo[b]thiophene-3-carbonitrile]
< 5 µM: all assays above

N#Cc1c(N)sc2c(F)ccc(-c3c(Cl)cc4c(N5CCCC6(CCCN6)C5)nc(OC[C@@]56CCCN5C[C@H](F)C6)nc4c3F)c12 (stereo partly drawn) [Compound 218, 2-amino-4-(6-chloro-8-fluoro-2-(((2R,7aS)-2-fluorotetrahydro-1H-pyrrolizin-7a(5H)-yl)methoxy)-4-(1,7-diazaspiro[4.5]decan-7-yl)quinazolin-7-yl)-7-fluorobenzo[b]thiophene-3-carbonitrile]
< 5 µM: all assays above

Nc1nc2c(-c3c(Cl)cc4c(N5CCCC6(CCCN6)C5)nc(OC[C@@]56CCCN5C[C@H](F)C6)nc4c3F)ccc(F)c2s1 (stereo partly drawn) [Compound 219, 4-(6-chloro-8-fluoro-2-(((2R,7aS)-2-fluorotetrahydro-1H-pyrrolizin-7a(5H)-yl)methoxy)-4-(1,7-diazaspiro[4.5]decan-7-yl)quinazolin-7-yl)-7-fluorobenzo[d]thiazol-2-amine]
< 5 µM: all assays above

N#Cc1c(N)sc2c(F)ccc(-c3c(Cl)cc4c(N5CCC6(CCN6C(=O)n6cncn6)C5)nc(OC[C@@]56CCCN5C[C@H](F)C6)nc4c3F)c12 (stereo partly drawn) [Compound 221, (4R)-4-(4-(1-(1H-1,2,4-triazole-1-carbonyl)-1,6-diazaspiro[3.4]octan-6-yl)-6-chloro-8-fluoro-2-(((2R,7aS)-2-fluorotetrahydro-1H-pyrrolizin-7a(5H)-yl)methoxy)quinazolin-7-yl)-2-amino-7-fluorobenzo[b]thiophene-3-carbonitrile]
< 5 µM: all assays above

Cc1ncn(C(=O)N2CC[C@]23CCN(c2nc(OC[C@@]45CCCN4C[C@H](F)C5)nc4c(F)c(-c5ccc(F)c6sc(N)c(C#N)c56)c(Cl)cc24)C3)n1 [Compound 222, 2-amino-4-(6-chloro-8-fluoro-2-(((2R,7aS)-2-fluorotetrahydro-1H-pyrrolizin-7a(5H)-yl)methoxy)-4-((S)-1-(3-methyl-1H-1,2,4-triazole-1-carbonyl)-1,6-diazaspiro[3.4]octan-6-yl)quinazolin-7-yl)-7-fluorobenzo[b]thiophene-3-carbonitrile]
< 5 µM: all assays above

C[C@H](Oc1nc(N2CCCC3(CCN3C(=O)C3CC3(F)F)C2)c2cc(Cl)c(-c3ccc(F)c4sc(N)c(C#N)c34)c(F)c2n1)[C@@H]1CCCN1C (stereo partly drawn) [Compound 223, 2-Amino-4-(6-chloro-4-(1-(2,2-difluorocyclopropane-1-carbonyl)-1,6-diazaspiro[3.5]nonan-6-yl)-8-fluoro-2-((S)-1-((S)-1-methylpyrrolidin-2-yl)ethoxy)quinazolin-7-yl)-7-fluorobenzo[b]thiophene-3-carbonitrile]
< 5 µM: all assays above

C[C@H]1CN(C(=O)n2cnc(Br)n2)[C@]12CCN(c1nc(OC[C@@]34CCCN3C[C@H](F)C4)nc3c(F)c(-c4ccc(F)c5sc(N)c(C#N)c45)c(Cl)cc13)C2 [Compound 224, 2-amino-4-(4-((3S,4R)-1-(3-bromo-1H-1,2,4-triazole-1-carbonyl)-3-methyl-1,6-diazaspiro[3.4]octan-6-yl)-6-chloro-8-fluoro-2-(((2R,7aS)-2-fluorotetrahydro-1H-pyrrolizin-7a(5H)-yl)methoxy)quinazolin-7-yl)-7-fluorobenzo[b]thiophene-3-carbonitrile]
< 5 µM: all assays above

Source: patent US20240116951A1, “HETEROCYCLIC COMPOUNDS AND USES THEREOF” (Kumquat Biosciences Inc., priority 2022, published 2024)
